Assay results: PMC8197230, “Orientated Immobilization of FAD-Dependent Glucose Dehydrogenase on Electrode by Carbohydrate-Binding Module Fusion for Efficient Glucose Assay” (International Journal of Molecular Sciences, 2021)

What was measured:
GDH (wild-type FAD-GDH) = test system: T1, GDH (wild-type FAD-GDH); test: PMS/DCIP spectrophotometric assay at […] nm, Michaelis-Menten non-linear fit; assay type: biochemical, Aspergillus niger; conditions: 0.1 M phosphate buffer pH 6.0, 37 °C; PMS and DCIP as electron acceptors; free enzyme
T1 construct: signal peptide (first 63 bp, 21 residues) removed; C-terminal His tag kept; secreted from Pichia pastoris GS115 (pPIC9k), glycosylated; Ni-purified

GDH-NL-CBM2 = test system: T2, GDH-NL-CBM2; test: as above; assay type: biochemical, Aspergillus niger; conditions: 0.1 M phosphate buffer pH 6.0, 37 °C; PMS and DCIP as electron acceptors; free enzyme
T2 construct: gene FAD-GDH; secreted from Pichia pastoris GS115, Ni-purified

## OC[C@H]1OC(O)[C@H](O)[C@@H](O)[C@@H]1O (some centres unmarked) [glucose]
GDH (wild-type FAD-GDH)
  Km: 12.3 mM
GDH-NL-CBM2
  Km: 11.8 mM
